In data set [1] the test system is MCF-7. The following applies: MCF-7 cell line; E7010 comparison value (Chem MedChem 2012, 7, 680-693); cited from earlier work.
In data set [2] the test system is A549. The following applies: A549 cell line; E7010 comparison value (Chem MedChem 2012, 7, 680-693); cited from earlier work.
The test system of data set [3] is A549. Description: IC50 of compounds and E7010 against A549 cell line. It is filed as cell-based. An excerpt:
(§1) In the present investigation, an attempt has been made, in view of the biological importance of both 2-anilino nicotinyl structure and 1,2,3-triazoles group. […] Introduction of triazole group on 2-anilino nicotinyl moiety resulted that there is enhancement of biological activity of representative compounds (1a, 1b, 1c, 1d, 1f, 1g, 1i, 1k, 6b and 6g) compare with E7010. Biological data of representative compounds has been provided in Table 1. • (Novel sulfonamides as potential, systemically active antitumor agents. Yoshino, H.; Ueda, N.; Niijima, J.; Sugumi, H.; Kotake, Y.; Koyanagi, N.; Yoshimatsu, K.; Asada, M.; Watanabe, T.; Nagasu, T. J. Med. Chem. 1992, 35, 2496-2497)

Data set [4] deals with MCF-7. The data set can be described thus: IC50 of compounds and E7010 against MCF-7 cell line. It is filed as cell-based.
Text: as §1

The mark [5] stands for this setting: Homo sapiens, A549, A549 cell line.
Where [6] appears, read: Homo sapiens, MCF7, MCF-7 cell line.

Like-named read-outs stand apart in the source and are kept apart here.

The IC50 is the concentration needed to halve the response being measured. As for `COc1ccc(S(=O)(=O)Nc2cccnc2Nc2ccc(O)cc2)cc1` [Compound E7010], the IC50 in data set [1] was 9.06 µM; in data set [2] it was 4.45 µM.
One may read the melting point as the temperature, or range, at which the solid turns liquid. Consider `O=C(NCc1cn(Cc2cccc(Oc3ccccc3)c2)nn1)c1cccnc1Nc1ccc(Cl)cc1` [Compound 1c, 2-(4-Chlorophenylamino)-N-((1-(3-phenoxybenzyl)-1H-1,2,3-triazol-4-yl)methyl)nicotinamide], for which the melting point fell in the range of 127 to 129 °C.
The molecule `O=C(NCc1cn(Cc2cccc(Oc3ccccc3)c2)nn1)c1cccnc1Nc1cccc(F)c1` [Compound 1f, 2-(3-Fluorophenylamino)-N-((1-(3-phenoxybenzyl)-1H-1,2,3-triazol-4-yl)methyl) nicotinamide] had a melting point of 130 to 132 °C. In addition, the midpoint of inhibition in data set [3] (A549 cell line), the IC50, lay at 1900 nM. In data set [3] (setting [5]), the IC50 was in the range of 1250 to 3980 nM.
In the case of `COc1cc(Cn2cc(CNC(=O)c3cccnc3Nc3ccc(F)cc3)nn2)cc(OC)c1` [Compound 6b, N-((1-(3,5-Dimethoxybenzyl)-1H-1,2,3-triazol-4-yl)methyl)-2-((4-fluorophenyl)amino) nicotinamide], the melting point is 140 to 142 °C. For the same molecule, the IC50 in data set [4] (setting [6]) fell in the range of 740 to 2510 nM. Moreover, the IC50 in data set [4] (MCF-7 cell line) turned out to be 1000 nM. In addition, it took 1250 nM to reach half-maximal inhibition in data set [3] (A549 cell line) (IC50). In data set [3] (setting [5]), this molecule gave an IC50 of 1250 to 3980 nM.
Molecule `O=C(NCc1cn(Cc2cccc(Oc3ccccc3)c2)nn1)c1cccnc1Nc1ccc(Br)cc1` [Compound 1d, 2-(4-Bromophenylamino)-N-((1-(3-phenoxybenzyl)-1H-1,2,3-triazol-4-yl)methyl)nicotinamide] registered a melting point of 160 to 162 °C. The molecule also yielded a half-inhibitory concentration (IC50) in data set [4] (setting [6]) of 740 to 2510 nM. This molecule registered an IC50 in data set [4] (MCF-7 cell line) of 970 nM. The same molecule showed an IC50 in data set [3] (A549 cell line) of 1900 nM. For the same molecule, the IC50 in data set [3] (setting [5]) fell in the range of 1250 to 3980 nM.
Taken in the same sequence, the figures for `COc1cc(Cn2cc(CNC(=O)c3cccnc3Nc3ccc(OC)cc3OC)nn2)cc(OC)c1` [Compound 6g, N-((1-(3,5-Dimethoxybenzyl)-1H-1,2,3-triazol-4-yl)methyl)-2-((2,4-dimethoxyphenyl)amino)nicotinamide] were 147 to 149 °C, 740 to 2510 nM, 1170 nM, 1310 nM and 1250 to 3980 nM.

The record behind these values is US9309225B2, “N-((1-benzyl-1H-1,2,3-triazol-4-yl)methyl)arylamide compounds as potential anticancer agents and a process for the preparation thereof” (COUNCIL OF SCIENTIFIC & INDUSTRIAL RESEARCH, priority 2013, dated 2016).
